Test results reported in patent US11603387B2, “SOCS mimetics for the treatment of diseases” (UNIVERSITY OF FLORIDA RESEARCH FOUNDATION, INC., priority 2014, dated 2023).

Tested on: SOCS1+/+ or SOCS1+/− CD4+CD25− T cells
Assay: CD4+ T cell activation (CD25 expressing cells, flow cytometry) after αCD3 stimulation
Assay type: cell-based, mouse
Settings: αCD3 + SOCS1-KIR peptide (20 μM), 72 h
Protocol: FIGS. 5A-5D. […] (FIGS. 5A and 5B) SOCS1^+/+ or SOCS1^+/− CD4^+CD25^− T cells were stimulated with αCD3 antibodies alone or with αCD3+SOCS1-KIR peptide (20 μM) for 72 h. (FIG. 5A) CD25 expressing cells were assessed by flow cytometry. Results are representative of 4 independent experiments. (FIG. 5B) Proliferation was assessed by CFSE labeling and flow cytometry, cell counts, and ^3[H] thymidine incorporation. n=4. (FIGS. 5C and 5D) SOCS1^+/+ or SOCS1^+/− CD4^+CD25^− T cells were placed under Th17 inducing conditions in the absence or presence of SOCS1-KIR peptide (20 μM) (FIG. 5C) IFNγ expression, relative to β-actin., was assessed by qPCR (left) and ELISA (right) (n=4). (FIG. 5D) pSTAT1 and STAT1 protein expressions were assessed by western blotting. […]
CD4^+ T cell proliferation was assessed by CFSE staining, ^3H thymidine incorporation, and absolute cell counts. […] After 72 h of incubation, cell cultures were either pulsed with 0.5 mCi ^3H thymidine (GE Healthcare; Arlington Heights, Ill.) or counted and harvested for assessment by flow cytometry. In cultures analyzed by flow cytometry, T lymphocytes were labeled with 10 μg/ml CFSE prior to culture as previously described (Cozzo et al. 2003). ^3H thymidine pulsed T lymphocytes were harvested 16-18 hours after initial pulse followed by the ^3H thymidine incorporation assessment using a Beckman LS3801 Liquid Scintillation System. […]

## DTHFRTFRSHSDYRRI (SOCS1-KIR peptide) [SOCS1 mimetic peptide corresponding to the KIR region of SOCS1]
SOCS1+/− CD4+ T lymphocytes
  αCD3 mediated CD25 up-regulation: sufficient to inhibit excessive αCD3 mediated CD25 up-regulation
WT (SOCS1+/+) CD4+ T lymphocytes
  CD25 expression: limited effects on CD25 expression
